Measurements reported in ChEMBL document CHEMBL3774389, “C-3 benzoic acid derivatives of C-3 deoxybetulinic acid and deoxybetulin as HIV-1 maturation inhibitors” (Bioorg Med Chem, 2016).
pEC50: −log10 of the molar value.

Experiments:
[1] = tested on: Human immunodeficiency virus 1; assay: Ratio of EC50 for HIV1 NLRepRlucP373S infected in human MT2 cells in presence of HSA to EC50 for HIV1 NLRepRlucP373S infected in human MT2 cells in absence of HSA; assay type: functional
[2] = tested on: Human immunodeficiency virus 1; assay: Antiviral activity against HIV1 containing gag V370A mutant infected in human MT2 cells after 4 to 5 days by luciferase report gene based multiple cycle drug susceptibility assay; assay type: functional, organism-based; settings: Human immunodeficiency virus 1, MT2
[3] = tested on: Human immunodeficiency virus 1; assay: Antiviral activity against wild type HIV1 NLRepRlucP373S infected in human MT2 cells after 4 to 5 days in presence of 15 mg/ml HSA by luciferase report gene based multiple cycle drug susceptibility assay; assay type: functional, organism-based; settings: Human immunodeficiency virus 1, NLRepRlucP373S
[4] = tested on: Human immunodeficiency virus 1; assay: Antiviral activity against wild type HIV1 NLRepRlucP373S infected in human MT2 cells after 4 to 5 days by luciferase report gene based multiple cycle drug susceptibility assay; assay type: functional, organism-based; settings: Human immunodeficiency virus 1, NLRepRlucP373S
[5] = Cytotoxicity against human MT2 cells assessed as cell viability by redox dye assay; assay type: cell-based

Structure (SMILES) | Ratio EC50 [1] | pEC50 [2] | pEC50 [3] | pEC50 [4] | CC50 [5]
C=C(C)[C@@H]1CC[C@]2(CO)CC[C@]3(C)[C@H](CC[C@@H]4[C@@]5(C)CC=C(c6ccc(C(=O)O)c(O)c6)C(C)(C)[C@@H]5CC[C@]43C)[C@@H]12 | 0.8 | 5.56 | 7.19 | 7.09 | 9.76 µM
C=C(C)[C@@H]1CC[C@]2(C(=O)O)CC[C@]3(C)[C@H](CC[C@@H]4[C@@]5(C)CC=C(c6cccc(S(=O)(=O)NC)c6)C(C)(C)[C@@H]5CC[C@]43C)[C@@H]12 | – | – | – | 5.91 | 13 µM
C=C(C)[C@@H]1CC[C@]2(C(=O)O)CC[C@]3(C)[C@H](CC[C@@H]4[C@@]5(C)CC=C(c6ccc(O)cc6)C(C)(C)[C@@H]5CC[C@]43C)[C@@H]12 | – | – | < 5.10 | 6.51 | 13.4 µM
C=C(C)[C@@H]1CC[C@]2(C(=O)O)CC[C@]3(C)[C@H](CC[C@@H]4[C@@]5(C)CC=C(c6ccc(C7(C(=O)O)CC7)cc6)C(C)(C)[C@@H]5CC[C@]43C)[C@@H]12 | – | 6.20 | – | 6.67 | > 8 µM
C=C(C)[C@@H]1CC[C@]2(C(=O)O)CC[C@]3(C)[C@H](CC[C@@H]4[C@@]5(C)CC[C@H](OC(=O)CC(C)(C)CC(=O)O)C(C)(C)[C@@H]5CC[C@]43C)[C@@H]12 | 227 | – | 6.04 | 8.40 | 4.25 µM
C=C(C)[C@@H]1CC[C@]2(C(=O)O)CC[C@]3(C)[C@H](CC[C@@H]4[C@@]5(C)CC=C(c6ccc(C(=O)O)s6)C(C)(C)[C@@H]5CC[C@]43C)[C@@H]12 | – | < 5.70 | – | 7.23 | 0.79 µM
C=C(C)[C@@H]1CC[C@]2(CO)CC[C@]3(C)[C@H](CC[C@@H]4[C@@]5(C)CC=C(c6cc(C(=O)O)[nH]n6)C(C)(C)[C@@H]5CC[C@]43C)[C@@H]12 | – | 6.46 | – | 7.21 | 0.57 µM
C=C(C)[C@@H]1CC[C@]2(C(=O)O)CC[C@]3(C)[C@H](CC[C@@H]4[C@@]5(C)CC=C(c6ccccc6CCC(=O)O)C(C)(C)[C@@H]5CC[C@]43C)[C@@H]12 | – | – | – | 5.49 | 5.03 µM
C=C(C)[C@@H]1CC[C@]2(C(=O)O)CC[C@]3(C)[C@H](CC[C@@H]4[C@@]5(C)CC=C(c6ccc(C(=O)NC)cc6)C(C)(C)[C@@H]5CC[C@]43C)[C@@H]12 | – | – | – | 5.80 | 22.6 µM
C=C(C)[C@@H]1CC[C@]2(CO)CC[C@]3(C)[C@H](CC[C@@H]4[C@@]5(C)CC=C(c6ccc(C(=O)O)cn6)C(C)(C)[C@@H]5CC[C@]43C)[C@@H]12 | – | < 5.70 | – | 6.30 | 4.3 µM
C=C(C)[C@@H]1CC[C@]2(C(=O)O)CC[C@]3(C)[C@H](CC[C@@H]4[C@@]5(C)CC=C(c6ccc(CCC(=O)O)cc6)C(C)(C)[C@@H]5CC[C@]43C)[C@@H]12 | – | – | – | 6.17 | 6.55 µM
C=C(C)[C@@H]1CC[C@]2(CO)CC[C@]3(C)[C@H](CC[C@@H]4[C@@]5(C)CC=C(c6ccc(NS(C)(=O)=O)cc6)C(C)(C)[C@@H]5CC[C@]43C)[C@@H]12 | – | < 5.80 | < 5.80 | < 5.80 | 8.82 µM
C=C(C)[C@@H]1CC[C@]2(C(=O)O)CC[C@]3(C)[C@H](CC[C@@H]4[C@@]5(C)CC=C(c6ccc(S(C)(=O)=O)cc6)C(C)(C)[C@@H]5CC[C@]43C)[C@@H]12 | – | – | – | 5.60 | 9.72 µM
C=C(C)[C@@H]1CC[C@]2(CO)CC[C@]3(C)[C@H](CC[C@@H]4[C@@]5(C)CC=C(c6ccc(C(=O)O)c(F)c6)C(C)(C)[C@@H]5CC[C@]43C)[C@@H]12 | 4 | 6.51 | 6.73 | 7.34 | 18.8 µM
C=C(C)[C@@H]1CC[C@]2(C(=O)O)CC[C@]3(C)[C@H](CC[C@@H]4[C@@]5(C)CC=C(c6ccc(C(=O)O)c(Cl)c6)C(C)(C)[C@@H]5CC[C@]43C)[C@@H]12 | 15 | 6.23 | 6.48 | 7.68 | 3.08 µM
C=C(C)[C@@H]1CC[C@]2(CO)CC[C@]3(C)[C@H](CC[C@@H]4[C@@]5(C)CC=C(c6ccc(C(=O)O)c(Cl)c6)C(C)(C)[C@@H]5CC[C@]43C)[C@@H]12 | 3.9 | 6.58 | 7.03 | 7.62 | 1.97 µM
C=C(C)[C@@H]1CC[C@]2(CO)CC[C@]3(C)[C@H](CC[C@@H]4[C@@]5(C)CC=C(c6csc(C(=O)O)c6)C(C)(C)[C@@H]5CC[C@]43C)[C@@H]12 | – | < 5.70 | – | 6.42 | 14.1 µM

Structure (SMILES) | Ratio EC50 [1] | pEC50 [2] | pEC50 [3] | pEC50 [4] | CC50 [5]
C=C(C)[C@@H]1CC[C@]2(C(=O)O)CC[C@]3(C)[C@H](CC[C@@H]4[C@@]5(C)CC=C(c6ccc(-c7cnc8ccccc8c7C(=O)O)cc6)C(C)(C)[C@@H]5CC[C@]43C)[C@@H]12 | – | – | – | 5.44 | 15.9 µM
C=C(C)[C@@H]1CC[C@]2(CO)CC[C@]3(C)[C@H](CC[C@@H]4[C@@]5(C)CC=C(c6cc(C(=O)O)no6)C(C)(C)[C@@H]5CC[C@]43C)[C@@H]12 | 7.5 | < 5.70 | 6.53 | 7.41 | 12.1 µM
C=C(C)[C@@H]1CC[C@]2(C(=O)O)CC[C@]3(C)[C@H](CC[C@@H]4[C@@]5(C)CC=C(c6ccc(/C=C/C(=O)O)cc6)C(C)(C)[C@@H]5CC[C@]43C)[C@@H]12 | – | – | – | 6.13 | > 8 µM
C=C(C)[C@@H]1CC[C@]2(C(=O)O)CC[C@]3(C)[C@H](CC[C@@H]4[C@@]5(C)CC=C(c6cccc(CCC(=O)O)c6)C(C)(C)[C@@H]5CC[C@]43C)[C@@H]12 | – | – | – | 6.24 | 1.83 µM
C=C(C)[C@@H]1CC[C@]2(C(=O)O)CC[C@]3(C)[C@H](CC[C@@H]4[C@@]5(C)CC=C(c6ccc(C#N)cc6)C(C)(C)[C@@H]5CC[C@]43C)[C@@H]12 | – | – | – | < 5.80 | 4.45 µM
C=C(C)[C@@H]1CC[C@]2(CO)CC[C@]3(C)[C@H](CC[C@@H]4[C@@]5(C)CC=C(c6ccc([N+](=O)[O-])cc6)C(C)(C)[C@@H]5CC[C@]43C)[C@@H]12 | – | < 5.40 | < 5.40 | < 5.40 | 20 µM
C=C(C)[C@@H]1CC[C@]2(C(=O)O)CC[C@]3(C)[C@H](CC[C@@H]4[C@@]5(C)CC=C(c6cccc(C(=O)O)c6)C(C)(C)[C@@H]5CC[C@]43C)[C@@H]12 | – | – | – | < 5.10 | 13.8 µM
C=C(C)[C@@H]1CC[C@]2(C(=O)O)CC[C@]3(C)[C@H](CC[C@@H]4[C@@]5(C)CC=C(c6cccc(NS(C)(=O)=O)c6)C(C)(C)[C@@H]5CC[C@]43C)[C@@H]12 | – | – | – | 5.67 | 12.7 µM
C=C(C)[C@@H]1CC[C@]2(CO)CC[C@]3(C)[C@H](CC[C@@H]4[C@@]5(C)CC=C(c6cnc(C(=O)O)nc6)C(C)(C)[C@@H]5CC[C@]43C)[C@@H]12 | 1 | < 5.40 | 5.97 | 5.97 | 22.3 µM
C=C(C)[C@@H]1CC[C@]2(C(=O)O)CC[C@]3(C)[C@H](CC[C@@H]4[C@@]5(C)CC=C(c6ccc(NC(=O)CCC(=O)O)cc6)C(C)(C)[C@@H]5CC[C@]43C)[C@@H]12 | – | 5.80 | – | 5.83 | 7.73 µM
C=C(C)[C@@H]1CC[C@]2(CO)CC[C@]3(C)[C@H](CC[C@@H]4[C@@]5(C)CC=C(c6ccc(C(=O)O)c(OC)c6)C(C)(C)[C@@H]5CC[C@]43C)[C@@H]12 | 2.3 | < 5.40 | 5.93 | 6.29 | 28.7 µM
C=C(C)[C@@H]1CC[C@]2(C(=O)O)CC[C@]3(C)[C@H](CC[C@@H]4[C@@]5(C)CC=C(c6ccc(C(=O)O)c(F)c6)C(C)(C)[C@@H]5CC[C@]43C)[C@@H]12 | 3.7 | 7.44 | 7.17 | 7.74 | 10.1 µM
C=C(C)[C@@H]1CC[C@]2(CO)CC[C@]3(C)[C@H](CC[C@@H]4[C@@]5(C)CC=C(c6ccc(C(=O)O)cc6Cl)C(C)(C)[C@@H]5CC[C@]43C)[C@@H]12 | 1 | < 5.40 | 6.93 | 6.94 | 17.3 µM
C=C(C)[C@@H]1CC[C@]2(C(=O)O)CC[C@]3(C)[C@H](CC[C@@H]4[C@@]5(C)CC=C(c6ccn(CC(=O)O)n6)C(C)(C)[C@@H]5CC[C@]43C)[C@@H]12 | – | < 5.52 | – | 6.78 | > 30 µM
C=C(C)[C@@H]1CC[C@]2(CO)CC[C@]3(C)[C@H](CC[C@@H]4[C@@]5(C)CC=C(c6ccc(C(=O)O)c(C(=O)O)c6)C(C)(C)[C@@H]5CC[C@]43C)[C@@H]12 | – | 6.67 | – | 7.42 | > 20 µM
C=C(C)[C@@H]1CC[C@]2(C(=O)O)CC[C@]3(C)[C@H](CC[C@@H]4[C@@]5(C)CC=C(c6cccc(-c7nn[nH]n7)c6)C(C)(C)[C@@H]5CC[C@]43C)[C@@H]12 | – | – | – | < 5.10 | 10.5 µM
C=C(C)[C@@H]1CC[C@]2(CO)CC[C@]3(C)[C@H](CC[C@@H]4[C@@]5(C)CC=C(c6ccc(-c7nn[nH]n7)cc6)C(C)(C)[C@@H]5CC[C@]43C)[C@@H]12 | – | < 5.40 | – | 5.47 | 34.3 µM
